Test system: Thymidine kinase (Human herpesvirus 1)
Settings: Human alphaherpesvirus 1

Nc1ncnc2c1ncn2[C@H]1C[C@H](O)[C@@H](CO)O1
ID50: > 1000 µM

— ChEMBL document CHEMBL1125350, “L-thymidine is phosphorylated by herpes simplex virus type 1 thymidine kinase and inhibits viral growth” (J Med Chem, 1992)
